Reference: US7998965B2, “Glutamate aggrecanase inhibitors” (Wyeth LLC, priority 2005, dated 2011)
Read-outs that look alike come from different tables or passages of the source.

Tests used:
[1] = molecular target: T1, purified recombinant human Aggrecanase-2 (Ag2t-Phe628-Strep) (Homo sapiens, UniProt Q9UNA0); test: In vitro fluorescence screen for Aggrecanase-2 inhibitors; format: biochemical; details: for IC50: read-out: Agg 2 IC50
T1 construct: the form used is denoted as Ag2t-Phe628-Strep (MW=41,737)
T1 sequence (Q9UNA0 262-628): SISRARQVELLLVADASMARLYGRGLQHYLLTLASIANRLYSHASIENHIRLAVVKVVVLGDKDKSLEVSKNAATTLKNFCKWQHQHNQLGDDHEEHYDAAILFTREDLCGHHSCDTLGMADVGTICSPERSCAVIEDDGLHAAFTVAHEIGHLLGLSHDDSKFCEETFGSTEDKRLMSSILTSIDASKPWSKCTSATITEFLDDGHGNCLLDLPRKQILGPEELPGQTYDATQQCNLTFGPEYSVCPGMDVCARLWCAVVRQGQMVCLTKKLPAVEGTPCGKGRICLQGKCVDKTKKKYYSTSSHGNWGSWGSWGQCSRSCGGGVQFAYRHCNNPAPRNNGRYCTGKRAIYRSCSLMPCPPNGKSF

[2] = molecular target: T2, purified recombinant human Aggrecanase-1 (rAgg1) (Homo sapiens, UniProt O75173); test: In vitro fluorescence screen for Aggrecanase-1 inhibitors; format: biochemical; design: Agg1 % at concentration: scale not given here; details: for IC50: read-out: Agg1 IC50
T2 sequence (O75173 213-837): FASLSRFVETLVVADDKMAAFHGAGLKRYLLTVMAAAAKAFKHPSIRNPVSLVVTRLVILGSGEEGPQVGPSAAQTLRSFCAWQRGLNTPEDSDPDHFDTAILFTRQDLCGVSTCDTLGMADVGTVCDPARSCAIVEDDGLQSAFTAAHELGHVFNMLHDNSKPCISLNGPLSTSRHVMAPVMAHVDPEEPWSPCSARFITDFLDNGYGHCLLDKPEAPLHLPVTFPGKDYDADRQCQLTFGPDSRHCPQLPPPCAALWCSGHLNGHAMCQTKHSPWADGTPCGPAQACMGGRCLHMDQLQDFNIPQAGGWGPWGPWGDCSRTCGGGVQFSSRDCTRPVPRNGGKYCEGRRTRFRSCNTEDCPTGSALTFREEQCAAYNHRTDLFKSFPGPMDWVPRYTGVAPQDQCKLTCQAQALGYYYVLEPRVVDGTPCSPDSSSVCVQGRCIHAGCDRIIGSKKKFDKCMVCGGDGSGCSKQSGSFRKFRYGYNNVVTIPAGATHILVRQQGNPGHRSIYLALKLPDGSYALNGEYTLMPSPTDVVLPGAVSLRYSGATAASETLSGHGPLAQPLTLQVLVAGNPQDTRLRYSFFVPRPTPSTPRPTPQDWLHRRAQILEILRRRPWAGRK

Row | SMILES | IC50 ([1]; Table 2) [nM] | IC50 ([2]; Table 2) [nM] | other results
1 | COc1cccc(COc2ccc(-c3ccc(C(=O)N[C@@H](CCC(=O)O)C(=O)NCC45CC6CC(CC(C6)C4)C5)cc3)cc2)c1 [Example 19A, N-(1-adamantylmethyl)-N^2-({4′-[(3-methoxybenzyl)oxy]biphenyl-4-yl}carbonyl)-L-α-glutamine] | 1020 | 930 | 
2 | COc1cc(COc2ccc(-c3ccc(C(=O)N[C@@H](CCC(=O)O)C(=O)NCC45CC6CC(CC(C6)C4)C5)cc3)cc2)cc(OC)c1 [Example 19B, N-(1-adamantylmethyl)-N^2-(4′-{[(3,5-dimethoxybenzyl)oxy]biphenyl-4-yl}carbonyl)-L-α-glutamine] | 590 | 3200 | 
3 | COc1cc(COc2ccc(-c3ccc(C(=O)N[C@@H](CCC(=O)O)C(=O)NC(C)(C)Cc4ccccc4)cc3)cc2)cc(OC)c1 [Example 19C, N^2-({4′-[(3,5-dimethoxybenzyl)oxy]biphenyl-4-yl}carbonyl)-N-(1,1-dimethyl-2-phenylethyl)-L-α-glutamine] | 75 | 140 | 
4 | COc1cc(CNC(=O)[C@H](CCC(=O)O)NC(=O)c2ccc(-c3ccc(OCc4cc(C)cc(C)c4)cc3)cc2)cc(OC)c1OC [Example 19D, N^2-({4′-[(3,5-dimethylbenzyl)oxy]biphenyl-4-yl}carbonyl)-N-(3,4,5-trimethoxybenzyl)-L-α-glutamine] | 223 | 210 | 
5 | COc1cc(CNC(=O)[C@H](CCC(=O)O)NC(=O)c2ccc(-c3ccc(OCc4cc(C(F)(F)F)cc(C(F)(F)F)c4)cc3)cc2)cc(OC)c1OC [Example 19E, N^2-[(4′-{[3,5-bis(trifluoromethyl)benzyl]oxy}biphenyl-4-yl)carbonyl]-N-(3,4,5-trimethoxybenzyl)-L-α-glutamine] | 1120 | 49 | 
6 | COc1cccc(COc2ccc(-c3ccc(C(=O)N[C@@H](CCC(=O)O)C(=O)NC(C)(C)Cc4ccccc4)cc3)cc2)c1 [Example 19F, N-(1,1-dimethyl-2-phenylethyl)-N^2-({4′-[(3-methoxybenzyl)oxy]biphenyl-4-yl}carbonyl)-L-α-glutamine] | 163 | 68 | 
7 | COc1cc(COc2ccc(-c3ccc(C(=O)N[C@@H](CCC(=O)O)C(=O)NCCCCCCO)cc3)cc2)cc(OC)c1 [Example 19G, N^2-({4′-[(3,5-dimethoxybenzyl)oxy]biphenyl-4-yl}carbonyl)-N-(6-hydroxyhexyl)-L-α-glutamine] | 146 | 270 | 
8 | COc1cccc(COc2ccc(-c3ccc(C(=O)N[C@@H](CCC(=O)O)C(=O)NCc4cc(OC)c(OC)c(OC)c4)cc3)cc2)c1 [Example 19H, N^2-({4′-[(3-methoxybenzyl)oxy]biphenyl-4-yl}carbonyl)-N-(3,4,5-trimethoxybenzyl)-L-α-glutamine] | 158 | 69 | 
9 | CC(C)(Cc1ccccc1)NC(=O)[C@H](CCC(=O)O)NC(=O)c1ccc(-c2ccccc2)o1 [N-(1,1-dimethyl-2-phenylethyl)-N^2-(5-phenyl-2-furoyl)-L-α-glutamine] |  |  | Agg 2 % at concentration ([1]; Table 3, at 25000 (nM)): 28%; Agg1 % at concentration ([2]; Table 3, at 8300 (nM)): 30%
10 | CC(C)(Cc1ccccc1)NC(=O)[C@H](CCC(=O)O)NC(=O)c1ccc(-c2nccs2)cc1 [N-(1,1-dimethyl-2-phenylethyl)-N^2-[4-(1,3-thiazol-2-yl)benzoyl]-L-α-glutamine] |  |  | inhibition at 25 µM ([1]; read-out: Agg 2 % at concentration): 62%; IC50 ([2]; Table 3): 270 nM
11 | CC(C)(Cc1ccccc1)NC(=O)[C@H](CCC(=O)O)NC(=O)c1ccc(-c2cccs2)cc1 [N-(1,1-dimethyl-2-phenylethyl)-N^2-[4-(2-thienyl)benzoyl]-L-α-glutamine] |  |  | IC50 ([1]; Table 3): 60 to 200 nM; Ki ([1]; Table 3, read-out: Ki Agg2): 38 nM; IC50 ([2]; Table 3): < 30 nM; Ki ([2]; Table 3, read-out: Ki Agg1): < 3 nM
12 | CC(C)(Cc1ccccc1)NC(=O)[C@H](CCC(=O)O)NC(=O)c1ccc(-c2ccc(C=O)s2)cc1 [N-(1,1-dimethyl-2-phenylethyl)-N^2-[4-(5-formyl-2-thienyl)benzoyl]-L-α-glutamine] |  |  | IC50 ([1]; Table 3): 500 nM; IC50 ([2]; Table 3): < 30 nM
